Measurements taken from patent publication US8288559B2, “Luminogenic compounds and methods to detect cytochrome P450 3A enzymes” (Promega Corporation, priority 2008, dated 2012).

How the values were obtained:
CYP3A4 versus CYP3A5 = target: T1, CYP3A4 versus CYP3A5 (Homo sapiens, UniProt P20815); test: Two-step luminescent P450 assay, recombinant enzyme panel screen; format: biochemical; conditions: human, recombinant human CYP3A4 and CYP3A5 microsomes (Supersomes), pH 7.4; FIG. 2 conditions: 50 μM compound, 1 pmole P450, 30 minutes; read-out: selectivity for CYP3A4 over CYP3A5
T1 construct: purchased Discovery Labware (Supersomes™); host or cells: insect cell expression system
Method: (§1) For assays using recombinant P450 enzymes, a two-step scheme was followed whereby a luciferin derivative is oxidized by a P450 enzyme in a first step. In the second step, LDR is added to the P450 reaction mixture to stop the P450 activity and initiate a glow-style luciferase reaction whereby the luminescent signal strength is dependent on the amount of luciferin derivative oxidized by a P450 enzyme in the first step.
(§2) Reaction buffers for the P450 enzyme reaction of the first step varied depending on the P450 enzyme used. […] Unless otherwise indicated, the following buffer/enzyme combinations were used: 100 mM KPO4, pH 7.4 for CYP1A1, 1A2, 1B1, 2D6, 2E1, 3A5, 3A7, 2J2, 4F12, 19, and control samples; 50 mM KPO4, pH 7.4 for CYP2B6, 2C8, 2C19, 4F2, 4F3A, 4F3B; 25 mM KPO4, pH 7.4 for CYP2C9; 200 mM KPO4, pH 7.4 for CYP3A4; 100 mM TrisHCl, pH 7.5 for CYP2A6, 2C18, 4A11.
(§3) In FIG. 2 and FIGS. 8-19, luciferin derivatives were screened against a panel of recombinant human cytochrome P450 enzyme and control microsomes (Supersomes™). Concentrated stock solutions of the proluciferin acetal compounds were prepared as follows: 50 mM 3320, 3357, 3364, 3366 and 3391 in acetonitrile; 50 mM 3359, 3365, 3397 and 3403 in dimethyl sulfoxide (DMSO); 50 mM 3377 in H2O; 10 mM 3363 in H2O. Luciferin-PPXE, luciferin-PFBE and luciferin-BE were provided as a 50 mM solution in DMSO, 2 mM solution in 25 mM Tris, pH 8 and a 5 mM solution in 100 mM KPO4, pH 7.4, respectively. Assays were performed in opaque, white, polystyrene, flat-bottom 96-well plates.
(§4) In FIG. 20 using compound 3391, the method used in FIGS. 2 and 8-19 was used with the following changes: 0.1 picomole of each P450 enzyme or an equivalent volume of control membranes was used per reaction; for all reactions, 2 μM compound 3391 was used, 100 mM KPO4, pH 7.4 was used as the P450 reaction buffer, and the reaction was incubated for 10 minutes at 37° C.
(§5) Briefly, in a first step a proluciferin acetal of the present invention is oxidized initially by a P450 enzyme. The oxidized product is then thought to undergo a non-enzymatic conversion to a proluciferin ester. In a second step, the proluciferin ester is detected by adding a luciferase reaction mixture containing an esterase enzyme that converts the proluciferin ester to luciferin. The luciferin reacts with luciferase to produce an amount of light that is proportional to the amount of luciferin, and therefore to the amount of P450 enzyme activity. A sample that contains active P450 enzyme is typically compared to a control that is devoid of P450 activity.

CYP3A4 versus CYP3A7 = target: T2, CYP3A4 versus CYP3A7 (Homo sapiens, UniProt P24462); test: as above; format: biochemical; conditions: human, recombinant human CYP3A4 and CYP3A7 microsomes (Supersomes), pH 7.4; FIG. 2 conditions: 50 μM compound, 1 pmole P450, 30 minutes; read-out: selectivity for CYP3A4 over CYP3A7
T2 construct: purchased Discovery Labware (Supersomes™); host or cells: insect cell expression system
Method: as §1, §2, §3, §4, §5

CYP3A5 = target: T3, CYP3A5 (Homo sapiens, UniProt P20815); test: as above; format: biochemical; conditions: FIG. 20 conditions: 2 μM compound, 0.1 picomole P450, 100 mM KPO4 pH 7.4, 10 minutes at 37° C.
T3 construct: purchased Discovery Labware (Supersomes™); host or cells: insect cell expression system
Method: as §1, §2, §3, §4, §5

CYP3A7 = target: T4, CYP3A7 (Homo sapiens, UniProt P24462); test: as above; format: biochemical; conditions: FIG. 20 conditions: 2 μM compound, 0.1 picomole P450, 100 mM KPO4 pH 7.4, 10 minutes at 37° C.
T4 construct: purchased Discovery Labware (Supersomes™); host or cells: insect cell expression system
Method: as §1, §2, §3, §4, §5

[1] = test system: panel of 21 recombinant human cytochrome P450 enzymes; test: as above; format: biochemical
Method: as §1, §2
In FIG. 2 and FIGS. 8-19, luciferin derivatives were screened against a panel of recombinant human cytochrome P450 enzyme and control microsomes (Supersomes™). […]
Briefly, in a first step a proluciferin acetal of the present invention is oxidized initially by a P450 enzyme. […] In a second step, the proluciferin ester is detected by adding a luciferase reaction mixture containing an esterase enzyme that converts the proluciferin ester to luciferin. […]

CYP3A4 [2] = target: T5, CYP3A4 (Homo sapiens, UniProt P08684); test: Two-step luminescent P450 assay with luciferin derivatives, recombinant enzyme panel screen; format: biochemical; set-up: purchased Discovery Labware (Supersomes™); host or cells: insect cell expression system; conditions: for signal/background (S/B) ratio: CYP3A4 vs minus P450 control, 50 μM substrate, 1 pmole P450, 30 minutes at 37° C. (FIG. 2)
Method: as §1, §2, §3, §4, §5

CYP3A4 [3] = target: T5, CYP3A4; test: Concentration dependence of the CYP3A4 reaction with compound 3391; format: biochemical; set-up: purchased Discovery Labware (Supersomes™); host or cells: insect cell expression system
Method: The reactions were performed as described for FIGS. 3-6 except no inhibitors were present in the reactions, and the concentration of compound 3391 varied as indicated in FIG. 7. Signals are expressed as net relative luminescent units (RLU) calculated by subtracting the background RLU values of control reaction mixtures that lack CYP3A4 enzyme from the RLU values of the CYP3A4 reactions. The curve fit was performed with the program GraphPad Prism™.
FIG. 7 illustrates the concentration dependence of the CYP3A4 reaction with compound 3391. […] The data fit well to a substrate inhibition model (R^2=0.99) described by the equation Y=(Vmax·X)/(Km+X+(X·X/Ki)), where X=substrate concentration, Y=activity in relative light units (RLU), Km=[…] and Ki=the substrate inhibition constant.

CYP3A4 [4] = target: T5, CYP3A4; conditions: non-acetal CYP3A4 substrates, Cali et al. 2006; cited from earlier work
CYP3A4 [5] = target: T5, CYP3A4; conditions: cited from earlier work
CYP3A4 [6] = target: T5, CYP3A4
Method: In FIGS. 3-6, CYP3A4 enzyme was co-expressed with cytochrome b5 and cytochrome P450 reductase in membrane fractions (Supersomes™). […] The reactions were initiated by addition of the NADPH regenerating system and incubated for 10 minutes at 37° C. After incubation, an equal volume (50 μl) of LDR was added and luminescence read 20 minutes later at room temperature on a Veritas™ luminometer. […] IC50 is the concentration of inhibitor that causes 50% inhibition of the reaction. Curve fits and IC50 calculations were performed with the program GraphPad Prism™.

T5 sequence (P08684 whole entry): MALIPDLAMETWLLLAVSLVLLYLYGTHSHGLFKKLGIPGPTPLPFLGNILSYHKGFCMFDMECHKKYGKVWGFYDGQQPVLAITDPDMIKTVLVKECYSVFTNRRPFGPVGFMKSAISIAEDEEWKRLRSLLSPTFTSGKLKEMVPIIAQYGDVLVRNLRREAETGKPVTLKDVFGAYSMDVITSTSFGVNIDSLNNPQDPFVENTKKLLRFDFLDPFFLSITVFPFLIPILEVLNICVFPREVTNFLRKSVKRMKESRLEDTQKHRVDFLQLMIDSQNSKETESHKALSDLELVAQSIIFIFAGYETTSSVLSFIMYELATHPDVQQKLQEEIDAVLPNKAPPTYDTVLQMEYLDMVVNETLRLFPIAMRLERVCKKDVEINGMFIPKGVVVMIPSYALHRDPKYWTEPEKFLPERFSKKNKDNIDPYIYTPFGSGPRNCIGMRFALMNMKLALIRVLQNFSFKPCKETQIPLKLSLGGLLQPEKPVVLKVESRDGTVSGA
T2 sequence (P24462 whole entry): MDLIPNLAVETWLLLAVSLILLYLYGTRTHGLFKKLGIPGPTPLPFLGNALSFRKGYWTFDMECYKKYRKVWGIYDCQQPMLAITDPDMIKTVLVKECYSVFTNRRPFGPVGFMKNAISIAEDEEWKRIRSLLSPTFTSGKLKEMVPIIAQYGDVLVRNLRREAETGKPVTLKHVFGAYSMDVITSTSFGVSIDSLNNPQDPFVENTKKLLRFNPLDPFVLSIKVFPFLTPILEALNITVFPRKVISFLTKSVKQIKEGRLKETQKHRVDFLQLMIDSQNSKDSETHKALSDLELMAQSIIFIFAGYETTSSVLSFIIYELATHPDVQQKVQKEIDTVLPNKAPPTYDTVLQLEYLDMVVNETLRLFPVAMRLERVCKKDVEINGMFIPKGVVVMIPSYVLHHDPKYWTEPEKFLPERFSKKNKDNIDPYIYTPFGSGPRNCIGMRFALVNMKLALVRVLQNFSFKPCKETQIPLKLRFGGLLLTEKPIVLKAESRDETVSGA
T4 sequence (P24462 whole entry): as above
T3 sequence (P20815 whole entry): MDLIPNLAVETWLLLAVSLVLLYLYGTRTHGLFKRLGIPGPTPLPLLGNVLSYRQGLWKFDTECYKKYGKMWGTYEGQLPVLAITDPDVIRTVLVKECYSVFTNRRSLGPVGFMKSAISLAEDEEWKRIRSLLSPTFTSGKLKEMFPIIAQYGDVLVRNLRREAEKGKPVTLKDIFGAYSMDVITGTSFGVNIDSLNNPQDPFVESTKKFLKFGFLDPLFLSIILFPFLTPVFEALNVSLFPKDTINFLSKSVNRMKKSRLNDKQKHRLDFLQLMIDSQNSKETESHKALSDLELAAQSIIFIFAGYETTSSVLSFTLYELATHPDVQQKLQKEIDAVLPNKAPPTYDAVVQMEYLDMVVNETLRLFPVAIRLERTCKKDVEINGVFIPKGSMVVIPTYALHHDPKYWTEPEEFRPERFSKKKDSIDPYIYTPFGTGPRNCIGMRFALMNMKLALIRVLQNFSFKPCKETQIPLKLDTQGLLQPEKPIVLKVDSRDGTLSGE
T1 sequence (P20815 whole entry): as above

CC(C)OC(OC(C)C)C1CSC(c2nc3ccc(O)cc3s2)=N1 (stereo not drawn) [compound 3391]
selectivity ratio at 30 min, 50 μM (CYP3A4 versus CYP3A5): 1.4 | selectivity ratio at 30 min, 50 μM (CYP3A4 versus CYP3A7): 8.5 | preference for CYP3A4 over CYP3A5 (CYP3A5): 8.0 fold | preference for CYP3A4 over CYP3A7 (CYP3A7): 48.5 fold | selectivity/preference for the CYP3A subfamily (CYP3A4, CYP3A5, CYP3A7) ([1]; 50 μM, one picomole enzyme, 30 minutes at 37° C.): excellent selectivity | activities with the other P450 enzymes screened ([1]; FIG. 20 conditions: 2 μM compound, 0.1 picomole P450, 10 minutes): negligible | fraction of compound oxidized during the incubation (CYP3A4 [2]; 0.1 picomoles of CYP3A4, 10 minute incubation, 2 μM): less than 10% | signal/background (S/B) ratio (CYP3A4 [2]): 1699 | time over which product accumulation with CYP3A4 is linear (CYP3A4 [2]; FIG. 20 conditions): at least 10 minutes | substrate concentration at maximal rate (CYP3A4 [3]; FIG. 7): 12.5 µM | Ki (CYP3A4 [3]; substrate inhibition model fit, read-out: Ki (substrate inhibition constant)): 171 µM

O=C(O)[C@H]1CSC(c2nc3ccc(OCc4cccc(CN5CCN(c6ccccc6)CC5)c4)cc3s2)=N1 [luciferin-PPXE, (S)-2-(6-(3-((4-phenylpiperazin-1-yl)methyl)benzyloxy)benzo[d]thiazol-2-yl)-4,5-dihydrothiazole-4-carboxylic acid, reference compound]
Km (CYP3A4 [4]): 25 µM | signal/background (S/B) ratio (CYP3A4 [2]): 56

Cc1ncc2n1-c1ccc(Cl)cc1C(c1ccccc1F)=NC2 [midazolam]
effect on CYP3A4 assay using luciferin-BE (CYP3A4 [5]): inhibited | effect on CYP3A4 assay using luciferin-PFBE (CYP3A4 [5]): inhibited | effect on CYP3A4 assay using luciferin-PPXE (CYP3A4 [5]): inhibited | effect on the CYP3A4/3391 reaction (CYP3A4 [6]): inhibited

O=C(O)[C@H]1CSC(c2nc3ccc(OCc4ccccc4)cc3s2)=N1 [luciferin-BE, (S)-2-(6-(benzyloxy)benzo[d]thiazol-2-yl)-4,5-dihydrothiazole-4-carboxylic acid, reference compound]
Km (CYP3A4 [4]): 50 µM | signal/background (S/B) ratio (CYP3A4 [2]): 55

O=C(O)[C@H]1CSC(c2nc3ccc(OC(F)(F)c4c(F)c(F)c(F)c(F)c4F)cc3s2)=N1 [luciferin-PFBE, (S)-2-(6-(perfluorobenzyloxy)-benzo[d]thiazol-2-yl)-4,5-dihydrothiazole-4-carboxylic acid, reference compound]
Km (CYP3A4 [4]): 50 µM | signal/background (S/B) ratio (CYP3A4 [2]): 92
